Results as given in ChEMBL document CHEMBL1201862, “PubChem BioAssay data set” (2004).
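In this assay, cells in 96-well plates receive the compound at five concentrations for 48 hours. Endpoints are linearly interpolated between the surrounding concentrations. Here, GI50 denotes the concentration required for 50% inhibition of growth.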 Activity calls are given as the source filed them. Rule as the data show it: active = GI50 up to about 1.1 µM and inactive = higher.

Tests used:
Test in all cases: inhibition of tumour cell growth, NCI panel, 48 h
HCT-15 = system: HCT-15
ACHN = system: ACHN
OVCAR-8 = system: OVCAR-8
SK-MEL-2 = system: SK-MEL-2
A549 = system: A549
K562 = system: K562
Hs-578T = system: Hs-578T
COLO 205 = system: COLO 205
786-0 = system: 786-0
U-251 = system: U-251
MDA-MB-231 = system: MDA-MB-231
HCT-116 = system: HCT-116
OVCAR-3 = system: OVCAR-3
NCI/ADR-RES = system: NCI/ADR-RES
Malme-3M = system: Malme-3M
SW-620 = system: SW-620
PC-3 = system: PC-3
NCI-H460 = system: NCI-H460
RPMI-8226 = system: RPMI-8226

Measured: GI50

Cc1ccc(/N=N/c2c(O)c3ccccc3[nH]c2=O)c(S(=O)(=O)N(C)C)c1
> 100 µM: HCT-15
inactive: ACHN > 100 µM | OVCAR-8 > 100 µM | SK-MEL-2 > 100 µM | A549 > 100 µM | K562 > 100 µM | Hs-578T > 100 µM | COLO 205 > 100 µM | 786-0 > 100 µM | U-251 > 100 µM | MDA-MB-231 > 100 µM | HCT-116 > 100 µM | OVCAR-3 > 100 µM | NCI/ADR-RES > 100 µM | Malme-3M > 100 µM | SW-620 > 100 µM | PC-3 > 100 µM | NCI-H460 > 100 µM | RPMI-8226 > 100 µM

CC(=O)NC(C)(C)C1CCC(C)CC1 (centres undefined)
inactive: ACHN > 100 µM | OVCAR-8 > 100 µM | A549 > 100 µM | K562 > 100 µM | Hs-578T 48.9 µM | COLO 205 > 100 µM | 786-0 > 100 µM | U-251 > 100 µM | MDA-MB-231 > 100 µM | HCT-116 > 100 µM | OVCAR-3 > 100 µM | NCI/ADR-RES > 100 µM | Malme-3M > 100 µM | SW-620 > 100 µM | PC-3 > 100 µM | NCI-H460 > 100 µM | RPMI-8226 > 100 µM
> 100 µM: HCT-15

CC12CCC(CC(=O)/C1=C(/Br)I)C2(C)C (centres undefined)
10.9 µM: HCT-15
inactive: ACHN 18.2 µM | OVCAR-8 17.8 µM | SK-MEL-2 13.7 µM | A549 14.6 µM | K562 11.2 µM | Hs-578T 18.7 µM | COLO 205 17.2 µM | 786-0 16.1 µM | MDA-MB-231 5.57 µM | HCT-116 12.4 µM | OVCAR-3 13.6 µM | NCI/ADR-RES 15.3 µM | Malme-3M 12.7 µM | SW-620 17 µM | PC-3 11.1 µM | NCI-H460 > 100 µM | RPMI-8226 6.25 µM

CC(OC(=O)C(CC(=O)OC(C)(C)C)NC(=O)OC(C)(C)C)C(=O)OCc1ccccc1 (centres undefined)
> 100 µM: HCT-15
inactive: ACHN > 100 µM | OVCAR-8 > 100 µM | SK-MEL-2 > 100 µM | A549 > 100 µM | K562 > 100 µM | Hs-578T > 100 µM | COLO 205 > 100 µM | 786-0 > 100 µM | U-251 > 100 µM | MDA-MB-231 > 100 µM | HCT-116 > 100 µM | OVCAR-3 > 100 µM | NCI/ADR-RES > 100 µM | Malme-3M > 100 µM | SW-620 > 100 µM | PC-3 > 100 µM | NCI-H460 > 100 µM | RPMI-8226 > 100 µM

CC[C@H](C)C1=C(O)[N@+]2([O-])Oc3ccc(-c4c(O)c(O)c(-c5ccc(O)cc5)c(OC(C)=O)c4OC(C)=O)cc3O[C@]2([C@@H](C)CC)C(=O)N1O
inactive: ACHN 22.5 µM | OVCAR-8 27 µM | SK-MEL-2 > 50 µM | A549 16.7 µM | K562 21.4 µM | Hs-578T 26.5 µM | COLO 205 > 50 µM | 786-0 47.2 µM | U-251 26.7 µM | MDA-MB-231 > 50 µM | HCT-116 10.1 µM | OVCAR-3 19.8 µM | NCI/ADR-RES 16.5 µM | Malme-3M 21.3 µM | SW-620 15.7 µM | PC-3 22.2 µM | NCI-H460 19 µM | RPMI-8226 10.6 µM
17 µM: HCT-15

C[C@]12CC[C@H]3[C@@H](CCC4=C[C@@H](N5CCCC5)CC[C@@]43C)[C@@H]1C/C(=C\c1ccncc1)[C@@H]2O
8.43 µM: HCT-15
inactive: ACHN 17 µM | OVCAR-8 24.9 µM | SK-MEL-2 16.4 µM | A549 12.3 µM | K562 3.24 µM | Hs-578T 13.8 µM | COLO 205 6.32 µM | 786-0 2.86 µM | U-251 12.6 µM | MDA-MB-231 13.9 µM | HCT-116 7.91 µM | OVCAR-3 16.4 µM | NCI/ADR-RES 17.6 µM | Malme-3M 13.6 µM | SW-620 13.4 µM | PC-3 13.6 µM | NCI-H460 11.6 µM | RPMI-8226 4.79 µM

CC1CCCc2c(-c3ccc(Cl)cc3)nc(N)c(C#N)c21 (centres undefined)
31 µM: HCT-15
inactive: ACHN 38.5 µM | OVCAR-8 24.6 µM | SK-MEL-2 18.4 µM | K562 24 µM | Hs-578T 28.3 µM | COLO 205 23.2 µM | 786-0 42.1 µM | U-251 39.9 µM | MDA-MB-231 > 100 µM | HCT-116 22.3 µM | OVCAR-3 29.5 µM | NCI/ADR-RES 23.2 µM | Malme-3M 24.4 µM | SW-620 61.9 µM | PC-3 21.6 µM | NCI-H460 33.1 µM | RPMI-8226 13.5 µM

O=C(NC/C(Cl)=C/Cl)Nc1cccc2c1CCCC2
> 100 µM: HCT-15
inactive: ACHN > 100 µM | OVCAR-8 > 100 µM | SK-MEL-2 > 100 µM | A549 > 100 µM | Hs-578T > 100 µM | COLO 205 > 100 µM | 786-0 89.3 µM | U-251 > 100 µM | MDA-MB-231 > 100 µM | HCT-116 > 100 µM | OVCAR-3 > 100 µM | NCI/ADR-RES > 100 µM | Malme-3M > 100 µM | SW-620 > 100 µM | PC-3 74.5 µM | NCI-H460 83.8 µM | RPMI-8226 49.8 µM

O=C(NCCC1([N+](=O)[O-])CCN(C(=O)c2ccccc2)CC1)c1ccccc1
inactive: ACHN > 100 µM | OVCAR-8 > 100 µM | SK-MEL-2 > 100 µM | A549 > 100 µM | K562 > 100 µM | Hs-578T > 100 µM | COLO 205 53.7 µM | 786-0 > 100 µM | U-251 > 10 µM | MDA-MB-231 > 100 µM | HCT-116 > 100 µM | NCI/ADR-RES > 100 µM | Malme-3M 56.5 µM | SW-620 > 100 µM | PC-3 > 100 µM | NCI-H460 35.3 µM | RPMI-8226 58.7 µM
> 100 µM: HCT-15

CCOC(=O)c1cc2c3c(c(C(C)=O)c(O)c2[nH]1)N(CC(C)CC)CC3 (centres undefined)
inactive: ACHN > 100 µM | OVCAR-8 61.7 µM | SK-MEL-2 > 100 µM | A549 62.8 µM | K562 32.5 µM | Hs-578T 8.97 µM | COLO 205 > 100 µM | 786-0 49.2 µM | U-251 78.2 µM | MDA-MB-231 33 µM | HCT-116 42.3 µM | NCI/ADR-RES 29.6 µM | Malme-3M 21.4 µM | SW-620 > 100 µM | PC-3 66.8 µM | NCI-H460 > 100 µM | RPMI-8226 36.1 µM
70.3 µM: HCT-15

CN1CCN2CCN(C)CCN(CC1)CC2
inactive: ACHN > 100 µM | OVCAR-8 > 100 µM | SK-MEL-2 > 100 µM | A549 > 100 µM | K562 > 100 µM | Hs-578T > 100 µM | COLO 205 > 100 µM | 786-0 > 100 µM | U-251 > 100 µM | MDA-MB-231 > 100 µM | HCT-116 > 100 µM | OVCAR-3 > 100 µM | NCI/ADR-RES > 100 µM | SW-620 > 100 µM | PC-3 > 100 µM | NCI-H460 > 100 µM | RPMI-8226 > 100 µM
> 100 µM: HCT-15

O=[N+]([O-])c1ccccc1S(=O)(=O)N1CCCc2cc(Cl)ccc21
15.5 µM: HCT-15
inactive: ACHN > 51.6 µM | OVCAR-8 88.9 µM | SK-MEL-2 > 52.6 µM | A549 38.7 µM | K562 3.46 µM | Hs-578T 50.8 µM | COLO 205 38.7 µM | 786-0 > 85.1 µM | MDA-MB-231 > 56.5 µM | HCT-116 16.2 µM | OVCAR-3 26.2 µM | NCI/ADR-RES 18 µM | Malme-3M > 100 µM | SW-620 17.1 µM | PC-3 18 µM | NCI-H460 18.6 µM | RPMI-8226 9.02 µM

C=CCn1c(N)c(C#N)c(C#N)c1CCC
> 100 µM: HCT-15
inactive: ACHN > 100 µM | OVCAR-8 > 100 µM | SK-MEL-2 > 100 µM | A549 > 100 µM | K562 > 100 µM | Hs-578T > 100 µM | COLO 205 > 100 µM | 786-0 > 100 µM | U-251 > 100 µM | MDA-MB-231 > 100 µM | OVCAR-3 74.6 µM | NCI/ADR-RES > 100 µM | Malme-3M > 100 µM | SW-620 > 100 µM | PC-3 > 100 µM | RPMI-8226 > 100 µM

COc1ccc2c(c1)CC1C3(CCCCC23)CC[N+]1(C)C (centres undefined)
> 100 µM: HCT-15
inactive: ACHN > 100 µM | OVCAR-8 > 100 µM | SK-MEL-2 > 100 µM | A549 > 100 µM | K562 75.5 µM | Hs-578T > 100 µM | COLO 205 > 100 µM | 786-0 > 100 µM | U-251 66.7 µM | MDA-MB-231 > 100 µM | HCT-116 > 100 µM | OVCAR-3 75.5 µM | NCI/ADR-RES > 100 µM | Malme-3M > 100 µM | PC-3 > 100 µM | NCI-H460 > 100 µM | RPMI-8226 > 100 µM

O=C(O)c1cc(C(=O)C(=O)c2cc(C(=O)O)c(O)c3ccccc23)c2ccccc2c1O
> 100 µM: HCT-15
inactive: ACHN > 100 µM | OVCAR-8 > 100 µM | SK-MEL-2 > 100 µM | A549 > 100 µM | K562 > 100 µM | Hs-578T > 100 µM | COLO 205 > 100 µM | 786-0 > 100 µM | U-251 > 100 µM | MDA-MB-231 > 100 µM | HCT-116 > 100 µM | OVCAR-3 > 100 µM | NCI/ADR-RES > 100 µM | Malme-3M > 100 µM | SW-620 > 100 µM | PC-3 > 100 µM | NCI-H460 > 100 µM | RPMI-8226 > 100 µM
